US7820817B2, “Modulators of muscarinic receptors” (Vertex Pharmaceuticals Incorporated, priority 2004, dated 2010)

System: at least one muscarinic receptor, M1, M2, M3, M4
Experiment: Muscarinic modulation activity (Table 3)
Type: cell-based
Design: key: +++: exhibited muscarinic modulation activity for at least one muscarinic receptor, M1, M2, M3, M4, at a concentration of less than 5 μM; ++: exhibited muscarinic modulation activity for at least one muscarinic receptor, M1, M2, M3, M4, at a concentration of between 30 μM and 5 μM; +: exhibited muscarinic modulation activity for at least one muscarinic receptor, M1, M2, M3, M4, at a concentration of greater than 30 μM; −: were not assayed or did not exhibit muscarinic modulation activity for at least one muscarinic receptor, M1, M2, M3, M4, at the concentration at which the assay was performed
Details: concentration at which modulation of at least one muscarinic receptor, M1, M2, M3, M4, was exhibited; CHO cells
Procedure: CHO cells expressing muscarinic receptors (M1 to M5) are grown as monolayers in tissue culture flasks at 37° C. in a humidified atmosphere containing 5% CO2 and passaged every 3-5 days. The growth media is Dulbecco's modified eagles medium (DMEM, Gibco Cat#12430-054), containing 25 mM Hepes and supplemented with Fetal Bovine Serum (Hyclone, cat#SH30071.03), 0.1 mM of MEM non-essential amino acids (GIBCO, Cat#11140-050), 1 mM MEM Sodium Pyruvate (GIBCO Cat#11360-070) and 100 units/ml of Penicillin G and 100 μg/ml of Streptomycin (GIBCO Cat#15140-122). The recombinant muscarinic receptor cell lines are grown under antibiotic pressure with media containing 25 μg/ml zeocin and 500 μg/ml G418 (M1-CHO), 4 μg/ml puromycin, 50 μg/ml zeocin and 2.5 μg/ml blasticidin (M2 and M4-CHO) or 50 μg/ml zeocin and 4 μg/ml puromycin (M3 and M5-CHO).
Cells are harvested at 80-90% confluence using Versene (GIBCO Cat#15040-066), collected by centrifugation and seeded 18-24 hrs prior to running the calcium assay at a density of 5,000-10,000 cells/well in […], clear-bottomed 384-well plates (BD Biocoat, poly-D-lysine, Cat#356663). The day of the experiment, the cells are washed with a plate washer (Bioteck Instruments, ELX 405) using bath1 buffer (140-mM NaCl, 4.5-mM KCl, 2-mM CaCl2, 1-mM MgCl2, 10-mM Hepes-Na, 10-mM Glucose, pH 7.4, with NaOH) containing 1 mM Probenecid. Next, the calcium dye Fluo-3 (25 μl/well of Fluo-3 AM at 4 μM, Molecular Probes F-1241, in Bath 1 buffer containing 1 mM Probenecid) is added to the 25 μl of Bath 1 remaining in each well after the plate wash and the dye is loaded at 37° C. in the tissue culture incubator for 60-90 min. The fluorescent dye is removed using the plate washer with Bath 1 containing 1 mM Probenecid, leaving 25 μl/well of this solution after the wash. Alternatively, cells can be loaded with the calcium indicator from Molecular Devices (Calcium 3 Assay Reagents, Cat #R7181) adding 5 μl of a 5× solution dye in Bath 1 containing 1 mM Probenecid (10 ml per dye flask cat#R7182 to generate a solution […]) to 20 μl of the same buffer. After loading for 60 min. the experiment can be run without having to remove the dye.
Compounds are prepared at a 2× fold concentration in a 96-well plate (round bottom, Costar Corning cat#3656), by reconstituting the pre-spotted compounds in bath 1 containing 1 mM probenecid. The final concentration DMSO is 0.5%, and the amount of DMSO is normalized across the assay plate. To determine an agonist action of the compounds on muscarinic receptors, the reconstituted compounds are added (25 μl compound/well) to the cell assay plate (containing 25 μl/well) using the multi-channel robotic system of the FLIPR 3 Instrument (Molecular Devices, Sunnyvale, Calif.). To determine a functional inhibitory action of the compounds on muscarinic receptors, the reconstituted compounds are added (25 μl compound/well) to the assay plate and pre-incubated for 15 min prior to adding 25 μl of Carbachol at 3× the EC80 for each muscarinic subtype. Alternatively, the compounds can be co-applied simultaneously with the agonist. In both assay modes, the fluorescence is recorded for 60 sec (excitation wavelength is […] and emission wavelength 540 nm) using the FLIPR 3 instrument.
The potency, efficacy and selectivity of the muscarinic compounds were evaluated by screening the compound activity across the whole family (M1 to M5 cells).
CHO cells expressing muscarinic receptors (M1 to M5) and containing a gene reporter system β-Lactamase) with transcriptional control mediated by calcium release (NFAT activation). See Zlokarnik, G; Negulescu, P. A.; Knapp, T. E.; Mere, L; Burres, N; Feng, L; Whitney, M; Roemer, K; Tsien, R. Y. Quantitation of transcription and clonal selection of single living cells with β-lactamase as reporter. Science, 1998 Jan. 2, 279(5347):84-8. The cells are grown as monolayers in tissue culture flasks at 37° C. in a humidified atmosphere containing 5% CO2 and passaged every 3-5 days. […]

Structure (SMILES)	ACTIVITY (muscarinic modulation activity)
N#Cc1nccnc1N1CCN(CC2CCC3CCC2C3)CC1 (stereo not drawn) [Compound 23, 3-[4-(4-bicyclo[3.2.1]octylmethyl)piperazin-1-yl]pyrazine-2-carbonitrile]	−
CCOC(=O)N1C2CCC1CC(N1CCN(c3nc(C(F)(F)F)ccc3C#N)CC1)C2 (stereo not drawn) [Compound 24, 3-[4-[3-cyano-6-(trifluoromethyl)-2-pyridyl]piperazin-1-yl]-8-azabicyclo[3.2.1]octane-8-carboxylic acid ethyl ester]	+++ (exhibited muscarinic modulation activity for at least one muscarinic receptor, M1, M2, M3, M4, at a concentration of less than 5 μM)
CCOC(=O)N1C2CCC1CC(N1CCN(c3ccncc3)CC1)C2 (stereo not drawn) [Compound 25, 3-[4-(4-pyridyl)piperazin-1-yl]-8-azabicyclo[3.2.1]octane-8-carboxylic acid ethyl ester]	+++ (exhibited muscarinic modulation activity for at least one muscarinic receptor, M1, M2, M3, M4, at a concentration of less than 5 μM)
Clc1cncc(Cl)c1N1CCN(CC2CC3C=CC2C3)CC1 (stereo not drawn) [Compound 26, 1-(5-bicyclo[2.2.1]hept-2-enylmethyl)-4-(3,5-dichloro-4-pyridyl)-piperazine]	−
N#Cc1cccnc1N1CCN(C2CC3CCC(C3)C2)CC1 (stereo not drawn) [Compound 27, 2-[4-(3-bicyclo[3.2.1]octyl)piperazin-1-yl]nicotinonitrile]	+ (exhibited muscarinic modulation activity for at least one muscarinic receptor, M1, M2, M3, M4, at a concentration of greater than 30 μM)
CCOC(=O)N1C2CCC1CC(N1CCN(c3ccc(C(F)(F)F)cn3)CC1)C2 (stereo not drawn) [Compound 28, 3-[4-[5-(trifluoromethyl)-2-pyridyl]piperazin-1-yl]-8-azabicyclo[3.2.1]octane-8-carboxylic acid ethyl ester]	+++ (exhibited muscarinic modulation activity for at least one muscarinic receptor, M1, M2, M3, M4, at a concentration of less than 5 μM)
CCOC(=O)N1C2CCC1CC(N1CCC(n3nnc4ccccc43)CC1)C2 (stereo not drawn) [Compound 29, 3-[4-(1H-benzotriazol-1-yl)-1-piperidyl]-8-azabicyclo[3.2.1]octane-8-carboxylic acid ethyl ester]	+++ (exhibited muscarinic modulation activity for at least one muscarinic receptor, M1, M2, M3, M4, at a concentration of less than 5 μM)
CCOC(=O)N1C2CCC1CC(N1CCN(c3ncccc3F)CC1)C2 (stereo not drawn) [Compound 30, 3-[4-(3-fluoro-2-pyridyl)piperazin-1-yl]-8-azabicyclo[3.2.1]octane-8-carboxylic acid ethyl ester]	+++ (exhibited muscarinic modulation activity for at least one muscarinic receptor, M1, M2, M3, M4, at a concentration of less than 5 μM)
Cc1ccc(C#N)c(N2CCN(C3CC4CCC3C4)CC2)n1 (stereo not drawn) [Compound 31, 6-methyl-2-(4-norbornan-2-ylpiperazin-1-yl)-nicotinonitrile]	++ (exhibited muscarinic modulation activity for at least one muscarinic receptor, M1, M2, M3, M4, at a concentration of between 30 μM and 5 μM)
N#Cc1cccnc1N1CCN(C2CC3CCC2C3)CC1 (stereo not drawn) [Compound 32, 2-(4-norbornan-2-ylpiperazin-1-yl)nicotinonitrile]	+ (exhibited muscarinic modulation activity for at least one muscarinic receptor, M1, M2, M3, M4, at a concentration of greater than 30 μM)
CCOC(=O)N1C2CCC1CC(N1CCN(c3ncc(-c4ccccc4)cc3C#N)CC1)C2 (stereo not drawn) [Compound 33, 3-[4-(3-cyano-5-phenyl-2-pyridyl)piperazin-1-yl]-8-azabicyclo[3.2.1]octane-8-carboxylic acid ethyl ester]	+ (exhibited muscarinic modulation activity for at least one muscarinic receptor, M1, M2, M3, M4, at a concentration of greater than 30 μM)
N#Cc1ccc(N2CCN(CC3CC4C=CC3C4)CC2)nc1 (stereo not drawn) [Compound 34, 6-[4-(5-bicyclo[2.2.1]hept-2-enylmethyl)piperazin-1-yl]nicotinonitrile]	+++ (exhibited muscarinic modulation activity for at least one muscarinic receptor, M1, M2, M3, M4, at a concentration of less than 5 μM)
c1cc(N2CCN(C3CC4CCC(C4)C3)CC2)ccn1 (stereo not drawn) [Compound 35, 1-(3-bicyclo[3.2.1]octyl)-4-(4-pyridyl)piperazine]	++ (exhibited muscarinic modulation activity for at least one muscarinic receptor, M1, M2, M3, M4, at a concentration of between 30 μM and 5 μM)
CCOC(=O)N1C2CCC1CC(N1CCN(c3ccc(C(N)=O)cn3)CC1)C2 (stereo not drawn) [Compound 36, 3-[4-(5-carbamoyl-2-pyridyl)piperazin-1-yl]-8-azabicyclo[3.2.1]octane-8-carboxylic acid ethyl ester]	+++ (exhibited muscarinic modulation activity for at least one muscarinic receptor, M1, M2, M3, M4, at a concentration of less than 5 μM)
C1=CC2CC1CC2CN1CCC(n2nnc3ccccc32)CC1 (stereo not drawn) [Compound 37, 1-[1-(5-bicyclo[2.2.1]hept-2-enylmethyl)-4-piperidyl]-1H-benzotriazole]	+ (exhibited muscarinic modulation activity for at least one muscarinic receptor, M1, M2, M3, M4, at a concentration of greater than 30 μM)
CCOC(=O)N1C2CCC1CC(CN1CCN(c3nccnc3C#N)CC1)C2 (stereo not drawn) [Compound 38, 3-[[4-(3-cyanopyrazin-2-yl)piperazin-1-yl]methyl]-8-azabicyclo[3.2.1]octane-8-carboxylic acid ethyl ester]	+++ (exhibited muscarinic modulation activity for at least one muscarinic receptor, M1, M2, M3, M4, at a concentration of less than 5 μM)
C1=CC2CC1CC2CN1CCN(c2cnccn2)CC1 (stereo not drawn) [Compound 39, 2-[4-(5-bicyclo[2.2.1]hept-2-enylmethyl)piperazin-1-yl]pyrazine]	+ (exhibited muscarinic modulation activity for at least one muscarinic receptor, M1, M2, M3, M4, at a concentration of greater than 30 μM)
Cc1cnc(C)c(N2CCN(C3CC4CCC3C4)CC2)n1 (stereo not drawn) [Compound 40, 2,5-dimethyl-3-(4-norbornan-2-ylpiperazin-1-yl)-pyrazine]	−
C1=CC2CC1CC2CN1CCN(c2ccncc2)CC1 (stereo not drawn) [Compound 41, 1-(5-bicyclo[2.2.1]hept-2-enylmethyl)-4-(4-pyridyl)piperazine]	+++ (exhibited muscarinic modulation activity for at least one muscarinic receptor, M1, M2, M3, M4, at a concentration of less than 5 μM)
N#Cc1cccnc1N1CCN(CC2CC3C=CC2C3)CC1 (stereo not drawn) [Compound 42, 2-[4-(5-bicyclo[2.2.1]hept-2-enylmethyl)piperazin-1-yl]nicotinonitrile]	+++ (exhibited muscarinic modulation activity for at least one muscarinic receptor, M1, M2, M3, M4, at a concentration of less than 5 μM)
N#Cc1nccnc1N1CCN(C2CC3CCC2C3)CC1 (stereo not drawn) [Compound 43, 3-(4-norbornan-2-ylpiperazin-1-yl)pyrazine-2-carbonitrile]	−
